What is called IC50 is the concentration that gives 50% inhibition.

For experiment [1], the target named is T1, NLRP3 (Homo sapiens, UniProt Q96P20). As to the kind of experiment: Human whole blood IL-1β release assay (LPS + nigericin, AlphaLisa). Particulars: NLRP3 inhibitory activity in human whole blood, 1 μg/ml LPS, 10 μM nigericin, read-out: HWB IC50. Type of experiment: cell-based. Further details: Plate out 80 μl of whole blood containing 1 μg/ml of LPS in 96-well, clear bottom cell culture plate; from tissue; host or cells: human whole blood from healthy donors (Li-heparin). The method, then:
For systemic delivery, the ability to inhibit NLRP3 when the compounds are present within the bloodstream is of great importance. For this reason, the NLRP3 inhibitory activity of a number of compounds in human whole blood was investigated in accordance with the following protocol.
Human whole blood in Li-heparin tubes was obtained from healthy donors from a volunteer donor panel. • 1. Plate out 80 μl of whole blood containing 1 μg/ml of LPS in 96-well, clear bottom cell culture plate (Corning #3585) • 2. Add 10 μl compound (8 points half-log dilution with 10 μM top dose) or vehicle (DMSO 0.1% FAC) to the appropriate wells • 3. Incubate for 3 hrs at 37° C., 5% CO2 • 4. Add 10 μl nigericin (Sigma #N7143) (10 μM FAC) to all wells • 5. Incubate for 1 hr at 37° C., 5% CO2 • 6. At the end of the incubation period, spin plates at 300×g for 5 mins to pellet cells and remove 20 μl of supernatant and add to 96-well v-bottom plates for IL-1β analysis (note: these plates containing the supernatants can be stored at −80° C. to be analysed at a later date) • 7. IL-1β was measured according to the manufacturer protocol (Perkin Elmer-AlphaLisa IL-1 Kit AL220F-5000) • 8. IC50 data is fitted to a non-linear regression equation (log inhibitor vs response-variable slope 4-parameters)

For experiment [2], the target named is T1, NLRP3. As to the kind of experiment: THP-1 cells pyroptosis assay (LPS-primed, nigericin-triggered, resazurin readout). It is filed as cell-based. Also noted: Seed THP-1 cells (25,000 cells/well) containing 1.0 μg/ml LPS in 40 μl of RPMI medium; host or cells: THP-1 cells, LPS-primed, nigericin-triggered. To be noted: NLRP3 inhibitory activity in THP-1 cells, 1.0 μg/ml LPS, 5 μM nigericin. The method, then: THP-1 cells (ATCC #TIB-202) were grown in RPMI containing L-glutamine (Gibco #11835) supplemented with ImM sodium pyruvate (Sigma #S8636) and penicillin (100 units/ml)/streptomycin (0.1 mg/ml) (Sigma #P4333) in 10% Fetal Bovine Serum (FBS) (Sigma #F0804). The cells were routinely passaged and grown to confluency ([…]). On the day of the experiment, THP-1 cells were harvested and resuspended into RPMI medium (without FBS). The cells were then counted and viability (>90%) checked by Trypan blue (Sigma #T8154). Appropriate dilutions were made to give a concentration of 625,000 cells/ml. To this diluted cell solution was added LPS (Sigma #L4524) to give a 1 μg/ml Final Assay Concentration (FAC). […] of the final preparation was aliquoted into each well of a 96-well plate. The plate thus prepared was used for compound screening.
The following method step-by-step assay was followed for compound screening. • 1. Seed THP-1 cells (25,000 cells/well) containing 1.0 μg/ml LPS in 40 μl of RPMI medium (without FBS) in 96-well, black walled, clear bottom cell culture plates coated with poly-D-lysine (VWR #734-0317) • 2. Add 5 μl compound (8 points half-log dilution, with 10 μM top dose) or vehicle (DMSO 0.1% FAC) to the appropriate wells • 3. Incubate for 3 hrs at 37° C. in 5% CO2 • 4. Add 5 μl nigericin (Sigma #N7143) (FAC 5 μM) to all wells • 5. Incubate for 1 hr at 37° C. and 5% CO2 • 6. At the end of the incubation period, spin plates at 300×g for 3 mins and remove supernatant • 7. Then add 50 μl of resazurin (Sigma #R7017) (FAC 100 μM resazurin in RPMI medium without FBS) and incubate plates for a further 1-2 hrs at 37° C. and 5% CO2 • 8. Plates were read in an Envision reader at Ex 560 nm and Em 590 nm • 9. IC50 data is fitted to a non-linear regression equation (log inhibitor vs response-variable slope 4-parameters)
A general note: Resazurin is reduced to fluorescent resorufin, in cell work by metabolically active cells.

Molecules are shown by their SMILES. Where a name gives a salt, the structure may show the parent alone.

T1 sequence (Q96P20 whole entry): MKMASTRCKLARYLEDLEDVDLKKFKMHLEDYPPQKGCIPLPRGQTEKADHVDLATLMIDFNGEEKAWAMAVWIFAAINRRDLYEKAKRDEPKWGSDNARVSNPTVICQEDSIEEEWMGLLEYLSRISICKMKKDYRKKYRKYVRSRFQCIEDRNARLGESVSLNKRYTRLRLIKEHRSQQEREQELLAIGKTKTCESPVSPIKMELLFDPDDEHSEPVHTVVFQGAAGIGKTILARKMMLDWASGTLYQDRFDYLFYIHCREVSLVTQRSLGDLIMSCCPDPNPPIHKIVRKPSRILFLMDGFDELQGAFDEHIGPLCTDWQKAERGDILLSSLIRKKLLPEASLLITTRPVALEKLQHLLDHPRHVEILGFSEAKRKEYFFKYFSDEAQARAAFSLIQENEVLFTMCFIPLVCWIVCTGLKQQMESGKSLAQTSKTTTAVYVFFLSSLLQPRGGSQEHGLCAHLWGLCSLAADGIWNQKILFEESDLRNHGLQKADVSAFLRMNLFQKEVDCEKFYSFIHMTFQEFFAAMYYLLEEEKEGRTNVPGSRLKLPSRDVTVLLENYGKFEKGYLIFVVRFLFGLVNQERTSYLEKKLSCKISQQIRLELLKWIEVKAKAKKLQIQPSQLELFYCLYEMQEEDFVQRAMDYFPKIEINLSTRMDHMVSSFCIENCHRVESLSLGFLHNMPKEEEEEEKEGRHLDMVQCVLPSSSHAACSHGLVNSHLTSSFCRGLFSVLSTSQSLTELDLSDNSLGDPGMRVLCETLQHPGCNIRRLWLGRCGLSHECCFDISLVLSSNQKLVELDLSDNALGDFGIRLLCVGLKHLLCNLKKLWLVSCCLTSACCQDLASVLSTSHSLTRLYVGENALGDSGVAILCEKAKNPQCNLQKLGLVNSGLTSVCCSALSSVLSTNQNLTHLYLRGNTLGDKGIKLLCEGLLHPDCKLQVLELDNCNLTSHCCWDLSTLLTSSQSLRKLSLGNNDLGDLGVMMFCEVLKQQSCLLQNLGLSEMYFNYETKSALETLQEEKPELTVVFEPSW

For the molecule `[N-]=[N+]=NCCCS(=O)(=O)NC(=O)Nc1c2c(cc3c1CCC3)CCC2` [Example 21, 3-Azido-N-((1,2,3,5,6,7-hexahydro-s-indacen-4-yl)carbamoyl) propane-1-sulfonamide, Potassium Salt], the IC50 on NLRP3 [1] was at most 5 µM; against NLRP3 [2], at most 1 µM.

`CC(c1ccccc1)S(=O)(=O)NC(=O)Nc1c2c(cc3c1CCC3)CCC2` (stereo not drawn) [Example 39, N-((1,2,3,5,6,7-Hexahydro-s-indacen-4-yl)carbamoyl)-1-phenylethanesulfonamide]: the IC50 was 7.5 to 10 µM at NLRP3 [1] and at most 1 µM against NLRP3 [2].

As to `O=C(Nc1c2c(cc3c1CCC3)CCC2)NS(=O)(=O)CCc1ccccc1` [Example 40, N-((1,2,3,5,6,7-Hexahydro-s-indacen-4-yl)carbamoyl)-2-phenylethanesulfonamide], the IC50 at NLRP3 [1] is over 10 µM; against NLRP3 [2] it was at most 1 µM.

(Values after patent US11518739B2, “Sulfonamide carboxamide compounds” (Inflazome Limited, priority 2017, dated 2022).)
